In US20250281629A1, “COMPOSITIONS AND METHODS FOR ANTI-PHOSPHOCHOLINE ACTIVE IMMUNOTHERAPY” (Duke University, priority 2022, published 2025):
Where no end group is shown, it is not given here. C11H22NO6P = phosphorylcholine group attached via 2-methacryloyloxyethyl phosphorylcholine

Assays:
[1] = test system: mouse anti-PC IgM monoclonal antibody (Clone: BH8); test: ELISA for measuring nanofiber epitope reactivity; assay type: binding; settings: nanofibers coated at 0.2 mM; PC-BSA positive control
Protocol: ELISA for Measuring Nanofiber Epitope Reactivity. The reactivity of PC conjugation methods was determined via binding of a mouse anti-PC IgM monoclonal antibody (Clone: BH8) (Sigma, MABF2084) to nanofibers. Nanofibers were diluted to 0.2 mM and coated onto 96-well plates at 4° C. overnight. PC-BSA (Biosearch Technologies, PC-1011-10) was coated at 20 μg/mL in 1×PBS overnight as a positive control, and PBS was used as a negative control. The next day, the plates were washed using 1×PBS with 0.05% Tween 20 (1×PBST) and then blocked with Superblock blocking buffer solution (Thermo Fisher, 37515) three times. This was followed by the addition anti-PC IgM which was serially diluted in 1% BSA in 1×PBST by 5-fold steps beginning from 1:100 (5 μg/mL) and allowed to incubate for 2 h at room temperature. Anti-PC IgM bound to nanofibers was then detected with HRP-conjugated goat anti-mouse IgM (Southern Biotech, 1021-05) and the absorbance values at 450 nm were measured.

[2] = test system: B1a cells (CD19+CD5+); test: Nanofiber uptake in i.p. lavage cells, flow cytometry: B1a cells; assay type: in vivo, mouse
Protocol: (§1) Nanofiber Uptake and Evaluation. The cell types present and their propensity to uptake nanofibers in the i.p. space was tested by injecting mice i.p. with 100 μL of 2 mM TAMRA-labeled fluorescent nanofibers. 4 hours later, mice were euthanized and i.p. lavage was conducted via the injection of 2 mL of cold 1×PBS into the peritoneal cavity and massaging the abdomen for 30 seconds. The solution was then carefully extracted from the i.p. space and the cells were isolated followed by rinsing with ice cold flow buffer (2% heat-inactivated FBS in 1×PBS). The cells present were treated with mouse BD Fc Block (Clone: 2.4G2) (BD Biosciences, 553142) in flow buffer on ice for 30 min and then washed and stained with antibodies against the following markers: CD5-APC (Clone: 53-7.3) (BioLegend, 100626), F4/80-PerCP/Cy5.5 (Clone: BM8) (BioLegend, 123128), CD19-APC/Cy7 (Clone: 6D5) (BioLegend, 115530), CD11c-PE/Cy7 (Clone: N418) (BioLegend, 117318), and CD86-BV605 (Clone: GL1) (BD Biosciences, 2272591) in flow buffer for 30 min on ice. TAMRA-fluorescence as an indication of nanofiber uptake was measured on the PE channel. Cells were then washed in flow buffer and stained with DAPI. Flow cytometry was conducted on a BD FACSCanto II cytometer and the results were analyzed using FlowJo software.

[3] = test system: non-B1a B cells (CD19+CD5−); test: Nanofiber uptake in i.p. lavage cells, flow cytometry: non-B1a B cells; assay type: in vivo, mouse; settings: for non-B1a B cells that acquired nanofibers: 4 hours after i.p. injection of TAMRA-labeled nanofibers
Protocol: as §1

[4] = test system: dendritic cells (F4/80−CD11c+); test: Nanofiber uptake in i.p. lavage cells, flow cytometry: dendritic cells; assay type: in vivo, mouse; settings: 4 hours after i.p. injection of TAMRA-labeled nanofibers
Protocol: as §1

[5] = test system: macrophages (F4/80+); test: Nanofiber uptake in i.p. lavage cells, flow cytometry: macrophages; assay type: in vivo, mouse; settings: 4 hours after i.p. injection of TAMRA-labeled nanofibers
Protocol: as §1

[6] = total TAMRA+ cells categorized by cell type

Substance | binding of anti-PC mAb to nanofibers [1] | CD86 activation marker on TAMRA+ B1a cells vs non-B1a cells ([2]; 4 hours after i.p. injection) | TAMRA MFI of B1a cells ([2]; 4 hours after i.p. injection) | B1a cells stained positively for nanofibers ([2]; 4 hours after i.p. injection of TAMRA-labeled nanofibers) | B1a cells among total TAMRA+ cells [2, 6] | non-B1a B cells that acquired nanofibers [3] | non-B1a B cells in the peritoneal cavity (total cells) ([3]; compared with PC-Q11, Q11, or PBS alone) | DCs that acquired nanofibers [4] | macrophages staining positively for nanofibers [5] | TAMRA MFI of non-B1a B cells ([3]; 4 hours after i.p. injection) | non-B1a B cells among total TAMRA+ cells [3, 6]
(C11H22NO6P)n-CCCCSGSG-QQKFQFQFEQQ-NH2 (CCCCSGSGQQKFQFQFEQQ-NH2; not fully specified; cysteine pairing not given here; also: phosphorylcholine groups (C11H22NO6P) n=1-4, attachment not placed) [PCM-Q11, linear multi-PC conjugate] | increased binding of an anti-PC mAb compared to PC-Q11 nanofibers and PC-BSA | selective elevation on B1a cells | selective uptake | about 75% | acquired by a substantial B1a cell population | < 30% | reduction in non-B1a B cells | < 30% | almost all macrophages staining positively for nanofibers |  | 
C11H22NO6P-CSGSG-QQKFQFQFEQQ-NH2 (C(C11H22NO6P)SGSGQQKFQFQFEQQ-NH2) [PC-Q11, phosphodiester PC-Q11] | bound | not seen |  |  |  | over 80% |  | about 67% | almost all macrophages staining positively for nanofibers | selective uptake | acquired primarily by non-B1a B cells
